Results from patent US10941109B2, “Compositions and methods of treatment using a BCAT1 inhibitor” (Ergon Pharmaceuticals, LLC, priority 2011, dated 2021).

Tested on: TGF-β1-stimulated human fibroblasts
Test: Collagen I production from TGF-β1-stimulated human fibroblasts (ELISA)
Assay type: cell-based
Conditions: for inhibition of collagen I secretion: at a concentration of 5-10 mM; for % Control Collagen Production: 30 min pretreatment, 7 ng/mL TGF-β1 for 48 hrs, collagen I per μg cell lysate
Method: In vitro fibrosis is assessed by measuring collagen synthesis after treatment of fibroblast cells with a profibrotic stimuli such as TGF-β1 or bleomycin. Collagen secretion into the media can be quantified in conditioned media using an appropriate ELISA kit.
Confluent monolayers of human fibroblasts, plated onto duplicate 35 mm dishes, were pretreated with various concentrations of compounds 2, 6, and 7 for 30 min followed by stimulation of the cells with 7 ng/mL TGF-β1 for 48 hrs. At the end of the experiment, conditioned media were collected and assessed for the presence of secreted collagen I, whereas cells were collected and lysed. Collagen I secretion was quantified using an ELISA kit from R&D Systems per the manufacturer's instructions and expressed as arbitrary absorbance units per μg of cell lysate. In Table 2, results are shown as % Control Collagen Production, defined as the amount of collagen I secreted per μg of cell lysate from fibroblast cultures stimulated with TGF-β1 in the absence of an inhibitor.

SMILES: CC(CCC(=O)O)C(=O)c1ccccc1 (stereo not drawn) [Compound 6, 4-methyl-5-oxo-5-phenylpentanoic acid]
- inhibition of collagen I secretion: completely inhibit
- % Control Collagen Production (compound concentration 5 mM): 77%
- % Control Collagen Production (compound concentration 10 mM): 2%

SMILES: CC(=O)C(CCC(=O)O)c1ccccc1 (stereo not drawn) [Compound 7, 5-oxo-4-phenylhexanoic acid]
- inhibition of collagen I secretion: completely inhibit
- % Control Collagen Production (compound concentration 2 mM): 150%
- % Control Collagen Production (compound concentration 5 mM): 41%
- % Control Collagen Production (compound concentration 10 mM): 2%

SMILES: CC(=O)C(C)CC(Cc1ccccc1)C(=O)O (stereo not drawn) [Compound 2, 2-benzyl-4-methyl-5-oxohexanoic acid]
- inhibition of collagen I secretion: completely inhibit
- % Control Collagen Production (compound concentration 5 mM): 4%
